According to US20210024545A1, “SUBSTITUTED DIAZAHETERO-BICYCLIC COMPOUNDS AND THEIR USE” (Bayer Aktiengesellschaft, priority 2016, published 2021):

Assays:
Format in all cases: cell-based
[1] = target: T1, human TASK-1 (Homo sapiens, UniProt O14649); test: Inhibition of recombinant TASK-1 in stably transfected CHO cells, KCl-induced depolarization, voltage-sensitive dye (B-2); design: expressed in transfected cells; host or cells: stably transfected CHO cells; settings: depolarization induced by 40 mM potassium chloride, some mean values from multiple determinations
T1 sequence (O14649 whole entry): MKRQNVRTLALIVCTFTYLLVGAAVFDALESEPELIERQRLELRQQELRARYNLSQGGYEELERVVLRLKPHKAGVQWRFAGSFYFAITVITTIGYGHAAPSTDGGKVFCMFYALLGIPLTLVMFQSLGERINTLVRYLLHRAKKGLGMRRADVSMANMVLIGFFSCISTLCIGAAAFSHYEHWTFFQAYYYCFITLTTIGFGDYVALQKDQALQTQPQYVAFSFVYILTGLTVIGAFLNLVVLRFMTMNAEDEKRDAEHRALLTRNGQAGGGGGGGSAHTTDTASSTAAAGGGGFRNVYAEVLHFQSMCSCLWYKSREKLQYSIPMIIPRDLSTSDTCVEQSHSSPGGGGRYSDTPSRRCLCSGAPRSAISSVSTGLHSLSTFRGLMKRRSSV
In short: (§1)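 Stably transfected CHO cells loaded with a voltage-sensitive membrane potential dye. Depolarization was induced with 40 mM KCl, and compound inhibition of it was read by fluorescence. IC50 is the concentration blocking half of the KCl-induced depolarization; some values are means of multiple independent determinations.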

[2] = target: T2, human TASK-3 (Homo sapiens, UniProt Q9NPC2); test: Inhibition of recombinant TASK-3 in stably transfected CHO cells, KCl-induced depolarization, voltage-sensitive dye (B-2); design: expressed in transfected cells; host or cells: stably transfected CHO cells; settings: depolarization induced by 40 mM potassium chloride, some mean values from multiple determinations
T2 sequence (Q9NPC2 whole entry): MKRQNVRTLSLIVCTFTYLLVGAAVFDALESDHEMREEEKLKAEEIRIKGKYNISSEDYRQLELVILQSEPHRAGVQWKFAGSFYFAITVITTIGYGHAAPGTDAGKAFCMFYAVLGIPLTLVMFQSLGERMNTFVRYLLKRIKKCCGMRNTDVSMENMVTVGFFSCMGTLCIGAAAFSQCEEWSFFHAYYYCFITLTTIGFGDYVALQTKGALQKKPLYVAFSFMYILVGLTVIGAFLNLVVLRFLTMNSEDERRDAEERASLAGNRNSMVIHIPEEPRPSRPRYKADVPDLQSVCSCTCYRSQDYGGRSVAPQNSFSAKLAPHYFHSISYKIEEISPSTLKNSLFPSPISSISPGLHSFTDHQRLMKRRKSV
In short: as §1

[3] = target: T1, human TASK-1; test: Two-electrode voltage clamp analysis of human TASK-1 channel in Xenopus laevis oocytes (B-1); design: expressed in transfected cells; host or cells: Xenopus laevis oocytes injected with cRNA; settings: Xenopus laevis oocytes injected with TASK-1 cRNA, 21-22° C.
Procedure: (§2) B-1. In Vitro Electrophysiological Analysis of the Human TASK-1 and TASK-3 Channels via Two-Electrode Voltage Clamp Technique in Xenopus laevis Oocytes
(§3) Xenopus laevis oocytes were selected as described elsewhere by way of illustration [Decher et al., FEBS Lett. 492, 84-89 (2001)]. Subsequently, the oocytes were injected with 0.5-5 ng of a cRNA solution coding for TASK-1 or TASK-3. For the electrophysiological analysis of the channel proteins expressed in the oocytes, the two-electrode voltage clamp technique [Stühmer, Methods Enzymol. 207, 319-339 (1992)] was used. The measurements were conducted as described [Decher et al., FEBS Lett. 492, 84-89 (2001)] at room temperature (21-22° C.) using a Turbo TEC 10CD amplifier (NPI), recorded at 2 kHz and filtered with 0.4 kHz. Substance administration was performed using a gravitation-driven perfusion system. Here, the oocyte is located in a measuring chamber and exposed to the solution stream of 10 ml/min The level in the measuring chamber is monitored and regulated by sucking off the solution using a peristaltic pump.

[4] = target: T2, human TASK-3; test: Two-electrode voltage clamp analysis of human TASK-3 channel in Xenopus laevis oocytes (B-1); design: expressed in transfected cells; host or cells: Xenopus laevis oocytes injected with cRNA; settings: Xenopus laevis oocytes injected with TASK-3 cRNA, 21-22° C.
Procedure: as §2, §3

[5] = target: T1, human TASK-1; test: Washout rate after binding to the human TASK-1 channel, two-electrode voltage clamp in Xenopus laevis oocytes (B-4); design: expressed in transfected cells; host or cells: Xenopus laevis oocytes injected with cRNA transcribed from the pSGEM vector; settings: TASK-1 inhibited beforehand by about 40% at the concentration of Table 3 (30-80 nM); restoration of current recorded over at least one hour
Excerpt: The washout rate is defined as the washout of a compound according to the invention from the TASK-1 channel in % h^−1, measured by means of electrophysiological analysis on TASK-1-expressing Xenopus laevis oocytes via the two-electrode voltage clamp technique according to the description in section B-4.
B-4. In Vitro Electrophysiological Analysis of the Washout Rate of Compounds After Binding to the Human TASK-1 Channel via Two-Electrode Voltage Clamp Technique in Xenopus laevis Oocytes
Xenopus laevis oocytes were obtained from animals that had been anaesthetized with tricaine. Ovaries were treated with collagenase (1 mg/ml, Worthington, type II), stored in OR2 solution (82.5 mM NaCl, 2 mM KC1, 1 mM MgCl2, 5 mM HEPES; pH 7.4) for 120 min and then kept in the ND96 standard solution (96 mM NaCl, 2 mM KC1, 1.8 mM CaCl2, 1 mM MgCl2, 5 mM HEPES; pH 7.5) with additional sodium pyruvate (275 mg/l), theophylline (90 mg/1) and gentamicin (50 mg/1) at 18° C. hTASK-1 and hTASK-3 were subcloned into the pSGEM vector, and cRNA was produced after linearization with NHEI and in vitro transcription with T7 polymerase. Oocytes were injected individually with 5-20 ng of cRNA solution that encodes hTASK-1. Standard two-electrode voltage clamp recordings [Stühmer, Methods Enzymol. 207, 319-339 (1992)] were conducted at room temperature (21-22° C.) with a Turbo-TEC-10CD amplifier (NPI) as described above [Decher et al., FEBS Lett. 492, 84-89 (2001)]. The measurement interval was 2 kHz, and the data were filtered at 0.4 kHz. Substances were applied in a gravity-driven manner via the bath solution, using ND96. In summary, Xenopus laevis oocytes were selected as described above, injected with TASK-1 cRNA and subjected to an electrophysiological analysis via the two-electrode voltage clamp technique.
The TASK-1 channels were inhibited beforehand by a value of about 40% by administration of one of the compounds of the invention. The concentrations shown in Table 3 below were established here, which had been ascertained beforehand by determining the IC50 values in question. Subsequently, the restoration of the TASK-1-related membrane current was recorded in the voltage clamp over at least one hour. This restoration is caused by the washout of the compound in question from the TASK-1 channel
At least 6 oocytes were examined for every compound. The voltage clamp measurements took a total of at least 1.5 hours (administration of the inhibitor plus at least one subsequent hour of washout measurement).

Q: How did the IC50 [1] turn out when `O=C(C1CCCO1)N1C2CC1CN(Cc1c(-c3ccc(Cl)cc3)nc3ccccn13)C2` (racemic) [Example 115] was run?
A: The IC50 was 4240 nM.

Q: What about the IC50 [2] of the same compound?
A: The IC50 was 2400 nM.

Q: What about the IC50 [3] of the same compound?
A: Its IC50 is 22.8 ± 3.7 nM.

Q: What about the IC50 [4] of the same compound?
A: The IC50 was 186 ± 5.4 nM.

Q: Which IC50 [1] does the source give for `COc1ccc(F)c(C(=O)N2CC3CCC2CN3Cc2c(-c3ccc(C(C)C)nc3)nc3ccccn23)n1` (single isomer, unassigned) [Example 126, (3-Fluoro-6-methoxypyridin-2-yl)(5-{[2-(6-isopropylpyridin-3-yl)imidazo[1,2-a]pyridin-3-yl]methyl}-2,5-diazabicyclo[2.2.2]oct-2-yl)methanone] here?
A: Its IC50 is 17900 nM.

Q: And the IC50 [2]?
A: The IC50 was 713 nM.

Q: What about the IC50 [3] of the same compound?
A: Its IC50 is 127 ± 8.5 nM.

Q: And the IC50 [4]?
A: Its IC50 is 714.2 ± 0.9 nM.

Q: Which IC50 [1] does the source give for `COc1cccc(C(=O)N2C[C@@H]3CC[C@H]2CN3Cc2c(-c3ccc(Cl)cc3)nc3ccccn23)n1` (single isomer, unassigned; enantiomer 1) [Example 21] here?
A: Its IC50 is 240 nM.

Q: And the IC50 [2]?
A: Its IC50 is 60 nM.

Q: And the IC50 [3]?
A: The IC50 was 27.3 ± 5.4 nM.

Q: And the IC50 [4]?
A: Its IC50 is 16.3 ± 0.9 nM.

Q: What about the Washout rate [5] of the same compound?
A: Its Washout rate is 40 % h^−1.

Q: Which results are given for `COc1ccc(F)c(C(=O)N2CC3CCC2CN3Cc2c(-c3ccc(Cl)cn3)nc3ccccn23)n1` (single isomer, unassigned; enantiomer 1) [Example 24, (5-{[2-(5-Chloropyridin-2-yl)imidazo[1,2-a]pyridin-3-yl]methyl}-2,5-diazabicyclo[2.2.2]oct-2-yl)(3-fluoro-6-methoxypyridin-2-yl)methanone (enantiomer 1)]?
A: IC50 [1]: 140 nM; IC50 [2]: 4.5 nM; IC50 [4]: 31.2 ± 5.8 nM

Q: How did the IC50 [1] turn out when `COc1cccc(C(=O)N2CC3CCC2CN3Cc2c(-c3ccc(Cl)cn3)nc3ccccn23)n1` (single isomer, unassigned; enantiomer 1) [Example 26, (−)-(5-{[2-(5-Chloropyridin-2-yl)imidazo[1,2-a]pyridin-3-yl]methyl}-2,5-diazabicyclo[2.2.2]oct-2-yl)(6-methoxypyridin-2-yl)methanone (enantiomer 1)] was run?
A: The IC50 was 690 nM.

Q: And the IC50 [2]?
A: The IC50 was 42 nM.

Q: And the IC50 [3]?
A: Its IC50 is 54 ± 16.1 nM.

Q: What about the IC50 [4] of the same compound?
A: The IC50 was 12 ± 3.3 nM.

Q: What about the Washout rate [5] of the same compound?
A: Its Washout rate is 17 % h^−1.

Q: Which IC50 [1] does the source give for `COc1cccc(C(=O)N2C3COCC2CN(Cc2c(-c4ccc(Cl)cc4)nc4ccccn24)C3)n1` [Example 29, (7-{[2-(4-Chlorophenyl)imidazo[1,2-a]pyridin-3-yl]methyl}-3-oxa-7,9-diazabicyclo[3.3.1]non-9-yl)(6-methoxypyridin-2-yl)methanone] here?
A: The IC50 was 460 nM.

Q: And the IC50 [2]?
A: The IC50 was 50 nM.

Q: And the Washout rate [5]?
A: The Washout rate was 17 % h^−1.

Q: With `COc1cccc(C(=O)N2C3CCC2CN(Cc2c(-c4ccc(Cl)cn4)nc4ccccn24)C3)n1` [Example 33, (3-{[2-(5-Chloropyridin-2-yl)imidazo[1,2-a]pyridin-3-yl]methyl}-3,8-diazabicyclo[3.2.1]oct-8-yl)(6-methoxypyridin-2-yl)methanone] as the compound, how does the IC50 [1] read?
A: Its IC50 is 140 nM.

Q: What about the IC50 [2] of the same compound?
A: The IC50 was 26 nM.

Q: What about the Washout rate [5] of the same compound?
A: Its Washout rate is 55 % h^−1.

Q: Which results are given for `COc1cccc(C(=O)N2C[C@H]3CC[C@@H]2CN3Cc2c(-c3ccc(Cl)cc3)nc3ccccn23)n1` [Example 34]?
A: IC50 [1]: 855 nM; IC50 [2]: 84 nM; IC50 [3]: 18.6 ± 4.3 nM; IC50 [4]: 10.3 ± 0.9 nM

Q: `O=C(C1CCCC1)N1CC2CCC(C1)N2Cc1c(-c2ccc(Cl)cc2)nc2ccccn12` [Example 86] was tested. Which IC50 [1] did it give?
A: The IC50 was 331 nM.

Q: And the IC50 [2]?
A: The IC50 was 126 nM.

Q: And the IC50 [3]?
A: The IC50 was 17.1 ± 3.5 nM.

Q: What about the IC50 [4] of the same compound?
A: Its IC50 is 58.4 ± 12.1 nM.

Q: For `COc1cccc(C(=O)N2CC3CCC(C2)N3Cc2c(-c3ccc(Cl)cc3)nc3ccccn23)n1` [Example 92], which IC50 [1] is on record?
A: Its IC50 is 895 nM.

Q: What about the IC50 [2] of the same compound?
A: The IC50 was 29 nM.

Q: And the IC50 [3]?
A: The IC50 was 13.5 ± 1.2 nM.

Q: What about the IC50 [4] of the same compound?
A: The IC50 was 5.9 ± 1.8 nM.

Q: Which IC50 [1] does the source give for `O=C(c1ccccc1F)N1C2CCC1CN(Cc1c(-c3ccc(Cl)cc3)nc3ccccn13)C2` [Example 102] here?
A: Its IC50 is 277 nM.

Q: What about the IC50 [2] of the same compound?
A: The IC50 was 56 nM.

Q: What about the IC50 [3] of the same compound?
A: Its IC50 is 8.7 ± 3.6 nM.

Q: What about the IC50 [4] of the same compound?
A: The IC50 was 4.3 ± 3.5 nM.

Q: For `COc1cccc(C(=O)N2C3CCC2CN(Cc2c(-c4ccc(Cl)cc4)nc4ccccn24)C3)n1` [Example 104], which IC50 [1] is on record?
A: Its IC50 is 255 nM.

Q: What about the IC50 [2] of the same compound?
A: Its IC50 is 32 nM.

Q: What about the IC50 [3] of the same compound?
A: The IC50 was 60.7 ± 12 nM.

Q: What about the IC50 [4] of the same compound?
A: The IC50 was 4.2 ± 1 nM.

Q: How did the IC50 [1] turn out when `CCOC(=O)N1C2COCC1CN(Cc1c(-c3ccc(Cl)cc3)nc3ccccn13)C2` [Example 195, Ethyl 7-{[2-(4-chlorophenyl)imidazo[1,2-a]pyridin-3-yl]methyl}-3-oxa-7,9-diazabicyclo[3.3.1]nonane-9-carboxylate] was run?
A: Its IC50 is 230 nM.

Q: What about the IC50 [2] of the same compound?
A: Its IC50 is 8.1 nM.

Q: Which IC50 [1] does the source give for `O=C(OC1CCCC1)N1C2COCC1CN(Cc1c(-c3ccc(Cl)cc3)nc3ccccn13)C2` [Example 196, Cyclopentyl 7-{[2-(4-chlorophenyl)imidazo[1,2-a]pyridin-3-yl]methyl}-3-oxa-7,9-diazabicyclo[3.3.1]nonane-9-carboxylate] here?
A: Its IC50 is 440 nM.

Q: And the IC50 [2]?
A: Its IC50 is 52 nM.

Q: `CCCOC(=O)N1C2COCC1CN(Cc1c(-c3ccc(Cl)cc3)nc3ccccn13)C2` [Example 197, Propyl 7-{[2-(4-chlorophenyl)imidazo[1,2-a]pyridin-3-yl]methyl}-3-oxa-7,9-diazabicyclo[3.3.1]nonane-9-carboxylate] was tested. Which IC50 [1] did it give?
A: Its IC50 is 150 nM.

Q: What about the IC50 [2] of the same compound?
A: Its IC50 is 13 nM.

Q: With `O=C(N1CCCCC1)N1C2COCC1CN(Cc1c(-c3ccc(Cl)cc3)nc3ccccn13)C2` [Example 198, (7-{[2-(4-Chlorophenyl)imidazo[1,2-a]pyridin-3-yl]methyl}-3-oxa-7,9-diazabicyclo[3.3.1]non-9-yl)(piperidin-1-yl)methanone] as the compound, how does the IC50 [1] read?
A: The IC50 was 810 nM.

Q: And the IC50 [2]?
A: Its IC50 is 60 nM.
